# Patent US8444858B2, “Control of development of biofilms in industrial process water” (A.Y. Laboratories Ltd., priority 2001, dated 2013)
# Legend:
# biofilm [1] = experiment: Waste water fouling control in a 7 km pipe, Hazen-Williams coefficient; details: NaOCl at a level of up to 50 mg/l (calculated as Cl2)
# Protocol: Treated wastewater was piped from a wastewater treatment plant to a location 7 kilometers away.
# (The Hazen-Williams coefficient is used to express water flow through industrial pipes. It is calculated using the formula
# [formula] wherein P is the friction pressure drop expressed in pounds per square inch per 1000 feet of pipe length, B is the flow rate in barrels per hour, s is the specific gravity of the liquid, C=a friction factor (the Hazen-Williams coefficient), and d is the internal diameter of the pipe in inches. P and B are measured for a given pipe, s and d are treated as constants, and C is calculated. The results are presented as the Hazen-Williams coefficient.
# Waste water (up to 10 m^3/h) was used to appropriately dilute both chemicals. An on-line pH meter controlled the production process and the hypochlorite feeding rate to ensure the production of a stable biofilm inhibiting substance. The biofilm inhibiting substance was injected into the treated waste pipe as it was produced. Concentration of the biofilm inhibiting substance stock solution was 3000-4000 ppm; the pH was maintained at 9.5-10.
# [2] = De-inking plant field trial, residual H2O2, residual biofilm inhibiting substance and H2O2 consumption
# Protocol: A de-inking system had been using 7-10 kg H2O2 per ton of waste paper.
# The reaction pH was Maintained at 9.8-10.0. The Production process was controlled to ensure synchronous metering of the two chemicals, continuous mixing at the predetermined molar ratio and reproducible production of a stable biofilm inhibiting substance stock solution for the duration of the trial and longer. […] After 850 minutes the dosing rate was reduced to 85 g/ton expressed as total Cl2 by feeding the biofilm inhibiting substance semi-continuously. Various parameters were monitored during start-up of the trial: Residual biofilm inhibiting substance was measured (using a Hach pocket colorimeter, total Cl2, based on the DPD method adapted from Standard Methods for Examination of Waste and Waste Water). […] When necessary, samples were diluted with DI water.
# catalase (Merck) = experiment: Inactivation of catalase, residual H2O2 laboratory test; type: biochemical; details: for Residual H2O2 concentration, % of 3.5% g/l: catalase 26 units/ml
# Protocol: Freshly prepared biofilm inhibiting substance was added to the appropriate flasks containing diluted catalase at a pre-defined feed rate. The contents of the containers were mixed for 60 minutes at room temperature prior to addition of H2O2 (to a final H2O2 concentration of 3.5 g/l). After addition of the H2O2, the mixture was allowed to mix for 30 minutes at room temperature, at which point H2O2 residues were measured in each flask in accordance with the Dr. Lange Cuvette Test LCW 058, measured with LASA 20 (based on Jander/Blasius: Lehrbach der Analytischen and Praparative Anorganischen Chemie, as described in the Handbook of Photometrical Operation Analysis (October 1997)).
# Sodium hypochlorite was diluted in DI water to a final concentration of 6000 ppm expressed as total chlorine. Ammonium bromide solution (equimolar to 1.1 mole of the diluted sodium hypochlorite solution, 10% excess on a molar basis) and ammonium chloride solution (equimolar to 1.1 mole of the diluted hypochlorite solution, 10% excess on a molar basis) were prepared. The diluted hypochlorite (50 ml) was added dropwise to 50 ml of the appropriate ammonium salt while the pH was constantly measured. The biofilm inhibiting substance concentration in the produced stock solution was immediately measured and the biofilm inhibiting substance at the appropriate feed level was immediately added to the test flasks.
# biofilm [3] = experiment: Pilot plant wastewater pipes, difference in Hazen-Williams coefficient treated vs control pipe; details: single 3 h treatment on day 1 at 10 ppm as total chlorine
# Protocol: Treated wastewater was pumped through several pipes of 10 m length and 4 inches inner diameter in a pilot plant. […] Pressure drop through each pipe was monitored on-line, and average HW coefficients were calculated.
# The biofilm inhibiting substance in this example was produced as follows, using a small feeding system was built specifically for this trial. […] The concentration of the biofilm inhibiting substance pre-injection solution was ˜3600 ppm and the pH was 9.2-9.6. […]
# [4] = system: mixed culture of slime-forming-bacteria which had been isolated from a paper machine; experiment: Formation of biofilm on stainless steel coupons in a model system (viable counts in medium and on coupons); type: cell-based
# Protocol: Formation of biofilm on stainless steel coupons in the presence or absence of an oxidizing biocide or a biofilm inhibiting substance was evaluated in the laboratory. The test system consisted of (a) three closed flasks each containing 20 L nutrient-rich medium (diluted three-fold from its recommended use concentration), (b) three closed cells containing stainless steel coupons hanging freely, and (c) three identical circulation pumps, each pump connected via plastic pipes to one of the flasks and to one of the cells. The system was placed in a thermostatic room at 35° C.
# An innoculum containing a mixed culture of slime-forming-bacteria which had been isolated from a paper machine was added to each of the flasks. An oxidizer containing a 5 ppm mixture (expressed as total Cl2) of bromochlorodimethylhydantoin (an oxidizing biocide which is a source of HOBr and HOCl) (hereinafter “mixed halogens”) was added to the first flask once a day for the duration of the trial (4 days). […] The third flask served as a control for the two flasks treated with the oxidizing biocide or biofilm inhibiting substances. […] A diluted solution of sodium hypochlorite in deionized (DI) water (˜8000 ppm as total chlorine) was fed with one pump; a diluted solution of ammonium bromide (12500 ppm) was fed with the second pump. The two diluted solutions were synchronously mixed in a short glass pipe to form a pre-injection solution of biofilm inhibiting substance, using a pH meter to control and check the stability of the biofilm inhibiting substance formed. The biofilm inhibiting substance was fed to the test system immediately as it was produced.
# On days 2 and 4, each closed cell was opened and 2 coupons were aseptically removed from each cell. At the same time samples of the circulating medium were taken as well. Sampling was conducted after feeding the daily slug dose of biocide.
# Each sample of medium was serially 10-fold diluted in sterile saline solution and plated in molten agar. Each coupon was thoroughly rinsed to remove any adhered particles, aseptically scraped, and the material removed by scraping was quantitatively dispersed in saline solution, vortexed, serially 10-fold diluted and plated in molten agar. Viable counts of microorganisms were taken after 48 h of incubation at 35° C. Viable counts of cells in the medium are presented as colony forming units (cfu) per ml; viable counts on the coupon surfaces are presented as cfu/cm^2.
smiles,measurement,setting,value
"[Na+].[O-]Cl [NaOCl, reference compound]",improving water conductivity in the pipes,biofilm [1],ineffective
"O=CCCCC=O [glutaraldehyde, reference compound]",average H2O2 consumption rate,"[2]; parallel de-inking system at the same plant, commercial chemical formulation containing glutaraldehyde",~4 kg H2O2/ton of waste paper
same,control of the enzymatic degradation of H2O2,[2]; previous attempts on the trial de-inking system,did not yield cost-effective results
"NCl [Chloramine, monochloroamine, reference compound]",oxidation of H2O2 by the substance,catalase (Merck),do not oxidize H2O2
same,"Residual H2O2 concentration, % of 3.5% g/l",catalase (Merck); BIS 6.7 ppm as total chlorine,6.8 % of 3.5% g/l
same,"Residual H2O2 concentration, % of 3.5% g/l",catalase (Merck); BIS 58 ppm as total chlorine,97.1 % of 3.5% g/l
same,"Residual H2O2 concentration, % of 3.5% g/l",catalase (Merck); BIS 128 ppm as total chlorine,99.4 % of 3.5% g/l
same,HW Diff. treated pipe - Control,biofilm [3]; day 1,13.0
same,HW Diff. treated pipe - Control,biofilm [3]; day 2,10.8
same,HW Diff. treated pipe - Control,biofilm [3]; day 3,10.7
same,HW Diff. treated pipe - Control,biofilm [3]; day 4,15.0
same,HW Diff. treated pipe - Control,biofilm [3]; day 5,15.2
same,HW Diff. treated pipe - Control,biofilm [3]; day 6,15.15
same,HW Diff. treated pipe - Control,biofilm [3]; day 7,14.6
same,HW Diff. treated pipe - Control,biofilm [3]; day 8,12.9
same,HW Diff. treated pipe - Control,biofilm [3]; day 9,13.0
same,HW Diff. treated pipe - Control,biofilm [3]; day 10,11.5
same,HW Diff. treated pipe - Control,biofilm [3]; day 11,9.5
same,HW Diff. treated pipe - Control,biofilm [3]; day 12,8.6
same,HW Diff. treated pipe - Control,biofilm [3]; day 13,7.0
same,HW Diff. treated pipe - Control,biofilm [3]; day 14,6.2
same,HW Diff. treated pipe - Control,biofilm [3]; day 15,4.4
same,HW Diff. treated pipe - Control,biofilm [3]; day 16,2.4
same,HW Diff. treated pipe - Control,biofilm [3]; day 17,0.8
same,HW Diff. treated pipe - Control,biofilm [3]; day 18,0.7
"CC1(C)C(=O)N(Cl)C(=O)N1Br [Mixed Halogens, bromochlorodimethylhydantoin, reference compound]",increase in the viable count of biofilm bacteria compared to day 2,[4]; coupons after 4 days,3 fold
same,reduction in viable count of planktonic microorganisms,[4]; medium sample after four days,~10 fold
same,"Viable Counts After 2 Days, medium","[4]; planktonic cells in circulating medium, day 2, daily slug dose (Mixed Halogens 5 ppm, Fuzzicide BAC […] expressed as Cl2), 35° C.",9 × 10^6 cfu/ml
same,"Viable Counts After 4 Days, medium","[4]; planktonic cells in circulating medium, day 4, daily slug dose (Mixed Halogens 5 ppm, Fuzzicide BAC […] expressed as Cl2)",1 × 10^6 cfu/ml
same,"Viable Counts After 2 Days, coupon surfaces","[4]; stainless steel coupons, day 2, daily slug dose (Mixed Halogens 5 ppm, Fuzzicide BAC […] expressed as Cl2)",27 cfu/cm^2
same,"Viable Counts After 4 Days, coupon surfaces","[4]; stainless steel coupons, day 4, daily slug dose (Mixed Halogens 5 ppm, Fuzzicide BAC […] expressed as Cl2)",95 Cfu/cm^2
